ChEMBL document CHEMBL3886909, “7-hydroxy-spiropipiperidine indolinyl antagonists of P2Y1 receptor” (2016)

Molecular target: T1, P2Y purinoceptor 1 (Homo sapiens, UniProt P47900)
Assay: Binding Assay: Binding reactions were performed in WGA FLASHPLATEs (PerkinElmer Life Sciences, Cat # SMP105A) in a volume of 200 uL containing 45 fmol of P2Y1 receptor (5 ug of total protein), 0.5 nM [33P] […] Reactions were allowed to proceed to completion at room temperature for 1 hour and then the aqueous solution aspirated.

T1 sequence (P47900 whole entry): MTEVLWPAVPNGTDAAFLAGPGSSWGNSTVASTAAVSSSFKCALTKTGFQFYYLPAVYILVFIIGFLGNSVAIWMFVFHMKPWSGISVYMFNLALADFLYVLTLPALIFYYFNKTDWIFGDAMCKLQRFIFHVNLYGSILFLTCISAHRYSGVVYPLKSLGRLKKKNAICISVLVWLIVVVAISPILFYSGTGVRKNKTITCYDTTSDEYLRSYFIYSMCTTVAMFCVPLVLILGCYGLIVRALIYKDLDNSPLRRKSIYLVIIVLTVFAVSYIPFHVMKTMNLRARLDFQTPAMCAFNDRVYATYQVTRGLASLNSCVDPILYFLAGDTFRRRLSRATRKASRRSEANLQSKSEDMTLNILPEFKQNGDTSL

Compound	Ki [nM]
CC(C)(C)CN1CCC2(CC1)CN(c1ccccc1NC(=O)Nc1ccc(OC(F)(F)F)cc1)c1c(O)cc(F)cc12	9.1

Molecular target: T1, P2Y purinoceptor 1
Assay: Scintillation Proximity Assay (SPA): A SPA membrane binding assay was used to identify inhibitors of [33P] […] Binding reactions were performed in 384-well OptiPlates (PerkinElmer Life Sciences, Cat #6007299) in a volume of 50 uL containing 15 fmol of P2Y1 receptor (1.7 ug of total protein), 0.3 nM [33P] […] Reactions were allowed to proceed to completion at room temperature for 1 hour followed by centrifugation of the plate for 5 min. About 40 uL of the aqueous soluttion was aspirated. Plates were sealed and the [33P]

Compound	Ki [nM]
CC(C)(C)CN1CCC2(CC1)CN(c1ccccc1NC(=O)Nc1nc3ccc(F)cc3s1)c1c(O)ccc(-c3nc4ccc(Cl)cc4s3)c12	104
CC(C)(C)CN1CCC2(CC1)CN(c1ccccc1NC(=O)Nc1ccc(OC(F)(F)F)cc1)c1c(O)ccc(-c3nc4cc(Cl)ccc4s3)c12	137
CC(C)(C)CN1CCC2(CC1)CN(c1ccccc1NC(=O)Nc1nc3ccc(Cl)nc3s1)c1c(O)ccc(-c3nc4cc(Cl)ccc4s3)c12	53.7
CC(C)(C)CN1CCC2(CC1)CN(c1ccccc1NC(=O)Nc1csc(Cl)n1)c1c(O)ccc(-c3nc4cc(Cl)ccc4s3)c12	9.1
CC(C)(C)CN1CCC2(CC1)CN(c1ccccc1NC(=O)Nc1ccc(OC(F)(F)F)cc1)c1c(O)ccc(-c3nc4ccc(Cl)cc4s3)c12	73.4
CC(C)(C)CN1CCC2(CC1)CN(c1ccccc1NC(=O)Nc1nc3ccc(Cl)nc3s1)c1c(O)ccc(-c3nc4cc(C(F)(F)F)ccc4s3)c12	24.6
CC(C)(C)CN1CCC2(CC1)CN(c1ccccc1NC(=O)Nc1csc(Cl)n1)c1c(O)ccc(-c3nc4cccc(Cl)c4s3)c12	18.4
CC(C)CN1CCC2(CC1)CN(c1ccccc1NC(=O)Nc1ccc(OC(F)(F)F)cc1)c1c(O)ccc(-c3nc4cc(Cl)ccc4s3)c12	9.6
CC(C)(C)CN1CCC2(CC1)CN(c1ccccc1NC(=O)Nc1nc3ccc(Cl)cc3s1)c1c(O)cc(F)c(Cl)c12	23.1
CC(C)(C)CN1CCC2(CC1)CN(c1ccccc1NC(=O)Nc1csc(Cl)n1)c1c(O)cc(F)c(Cl)c12	19
CC(C)N1CCC2(CC1)CN(c1ccccc1NC(=O)Nc1ccc(OC(F)(F)F)cc1)c1c(O)ccc(-c3nc4cc(Cl)ccc4s3)c12	24
CC(C)(C)CN1CCC2(CC1)CN(c1ccccc1NC(=O)Nc1nc3ccc(F)cc3s1)c1c(O)ccc(-c3nc4cc(Cl)ccc4s3)c12	1.2
